{"source": "patent US6211209A", "about": "“Method of inhibiting connective tissue degradation” (Warner-Lambert Company, priority 1998, dated 2001)", "key": {"cartilage": {"system": "cartilage", "test": "Rabbit model of IL-1α-induced cartilage degradation (intra-articular injection, knee joint)", "format": "in vivo", "conditions": "for Proteoglycan Loss (% Control): 24 hours (IL-1α alone 35.40 ± 3.12)", "protocol": "Rabbits (3.0-3.2 kg) were obtained from Hazelton (Denver, Pa.); Xylazine from W. A. Butler (Columbus, Ohio); Rompun from Miles Inc, (Shawnee Mission, Kans.); Ketamine HCl from Aveco (Fort Dodge Labs, Fort Dodge, Iowa); Pentobarbital from Western Medical Supply (Acadia, Calif.); human recombinant Interleukin-1α (IL-1α) from Genzyme (Cambridge, Mass.); Cetus Pro/Pette (Perkin Elmer, Norwalk, Conn.); Biomek 1000 (Beckman, Fullerton, Calif.).\nThe assay was performed in two phases. The hind leg knee joints were first injected with IL-1α and compound for 24 hours. The proteoglycan content of cartilage was then quantified by measuring chondroitin sulfate present using the 1,9-Dimethylmethylene Blue Assay (DMB).\nEach treatment was done in quadruplicate, necessitating twelve animals per study. Rabbits were anesthetized by injecting intramuscularly 0.9 mL Rompun combined with 1.8 mL Ketoset. Hind leg knee area was shaved and wiped with 70% EtOH and both drug and IL-1α were injected intra-articulary (27-gauge needle) in succession.\n0.5 mL DMSO/Saline and 0.5 mL PBS/0.2% FCS.\n0.5 mL DMSO/Saline containing 8 μg Compound 1 and 2500 U/0.5 mL IL-1α.\n0.5 mL DMSO/Saline containing 8 μg Compound 1 and 0.5 mL PBS/0.2% FCS.\n0.5 mL DMSO/Saline containing 24 μg Compound 1 and 0.5 mL IL-1α.\n0.5 mL DMSO/Saline containing 24 μg Compound 1 and 0.5 mL PBS/0.2% FCS. […]\nThe ability of a compound to inhibit proteoglycan release from cartilage pieces was quantified by measuring chondroitin sulfate. […] This color change was measured using a Titertek Multiscan MCC 340 plate reader at 540 nm. […] The DMB assay was performed by adding 10 μL of samples to 290 μL DMB (16 mg dye/L of 0.1 M formate buffer, pH 3.5, containing 5 mL ethanol) and reading at 540 nm. Once the experiment was completed the total amount of proteoglycan remaining in the cartilage pieces was determined by digesting cartilage samples with papain and then performing 1,9 DMB assay on the digest. […] Digested material was diluted (1:5, 1:10, 1:20) and chondroitin sulfate values determined using the 1,9 DMB assay."}, "72 kDa gelatinase": {"system": "72 kDa gelatinase", "test": "Gelatin zymography of bovine nasal cartilage conditioned media: expression of 72 kDa gelatinase", "format": "cell-based", "conditions": "various concentrations, FIG. 1", "protocol": "(§1) To evaluate the effects of the compounds of the present invention on the expression of 72 kDa and 92 kDa gelatinases, samples obtained from the bovine nasal cartilage study (described above) were subjected to gelatin zymography.\n(§2) Separating gels (8%) were made by combining 400 μL gelatin (25 mg/mL) with: 2.5 mL Tris (1.5 M); 100 μL SDS (10%); 2.6 mL acrylamide (30%); 10 μL TEMED; 4.6 mL dH2 O; 100 μL ammonium persulfate (10%). Stacking gels (4.5%) were formed by combining: 2.5 mL Tris (0.5 M); 100 μL SDS (10%); 1.5 mL acrylamide (30%); 10 μL TEMED; 5.8 mL dH2 O; 100 μL ammonium persulfate (10%).\n(§3) Bovine nasal cartilage conditioned media was diluted (1:15) using sample buffer 1X (2% SDS, 15% glycerol, 0.01% bromophenol blue, 0.25M Trizma Base, pH 6.8). Thirty microliters of each of the diluted samples and molecular weight standards were subjected to electrophoresis at 4° C. under constant current conditions (20 mA of current/gel) using Tris/Glycine running buffer (0.5 M Trizma Base, pH 8.8 using glycine, 1% SDS) that was diluted 1:20 before use.\nAfter completion of the electrophoretic procedure, the gel was first washed twice for 15 minutes in 2.5% Triton X-100. The gel was then rinsed with the gel incubation buffer (0.05 M Tris, pH 8.2, 0.005 M CaCl2, 0.5 μM ZnCl2) and incubated overnight in this buffer at 37° C. […]"}, "92 kDa gelatinase": {"system": "92 kDa gelatinase", "test": "Gelatin zymography of bovine nasal cartilage conditioned media: expression of 92 kDa gelatinase", "format": "cell-based", "protocol": "as §1, §2, §3\nAfter completion of the electrophoretic procedure, the gel was first washed twice for 15 minutes in 2.5% Triton X-100. The gel was then rinsed with the gel incubation buffer (0.05 M Tris, pH 8.2, 0.005 M CaCl2, 0.5 μM ZnCl2) and incubated overnight in this buffer at 37° C. After the incubation period, the gel was stained for 30 minutes in 0.125% Coomassie and destained using 10% methanol/5% acetic acid destaining solution."}}, "data": [{"smiles": "S=c1[nH]nc(-c2ccccc2Nc2ccccc2)o1", "note": "[Compound 1, 5-(2-Phenylamino-phenyl)-3H-[1,3,4]oxadiazole-2-thione]", "values": [{"measurement": "Proteoglycan Loss (% Control)", "setting": "cartilage; 8 μg/jt with IL-1α", "value": "18.78 ± 10.98", "unit": "% Control"}, {"measurement": "Proteoglycan Loss (% Control)", "setting": "cartilage; 24 μg/jt with IL-1α, * significantly different from IL-1α alone", "value": "9.35 ± 7.26", "unit": "% Control"}, {"measurement": "inhibiting cartilage degradation", "setting": "cartilage; 8 and 24 μg/joint, 24 hours", "value": "effective in inhibiting cartilage degradation in a dose-dependent manner"}, {"measurement": "effect on expression of 72 kDa gelatinase", "setting": "72 kDa gelatinase", "value": "no effect on expression of 72 kDa gelatinase"}, {"measurement": "inhibiting expression of IL-1β-induced 92 kDa gelatinase", "setting": "92 kDa gelatinase; various concentrations, IL-1β-induced, FIG. 1", "value": "effective in inhibiting expression of IL-1β-induced 92 kDa gelatinase in a dose-dependent manner"}, {"measurement": "specificity of effects (92 kDa versus 72 kDa gelatinase)", "setting": "92 kDa gelatinase; versus 72 kDa gelatinase", "value": "specific to 92 kDa"}]}]}
